14 substances from EP0987275B1, “Molecules that home to a selected organ or tissue in vivo” (LA JOLLA CANCER RESEARCH FOUNDATION, priority 1995, dated 2008) can be followed below.

“And” between values parts separate entries of the source, which are not always exact repeats. Equal values may be shown once. Where no end group is shown, it is not given here.

Assay [1] relates to Human 435 breast carcinoma cells. The assay is described as follows: In vivo targeting of phage expressing an RGD peptide to a breast tumor. More on the design: species or system nude mice. Particulars: for RGD phage as compared to unselected control phage accumulated in the tumor: human breast carcinoma tumors. The protocol:
Human 435 breast carcinoma cells were inoculated into the mammary fat pad of nude mice. When the tumors attained a diameter of about 1 cm, phage expressing a specific RGD-containing peptide were administered to the tumor bearing mouse. Similar results to those discussed below also were obtained with nude mice bearing tumors formed by implantation of human melanoma C8161 cells or by implantation of mouse B16 melanoma cells.
1 x 10^9 phage expressing the RGD-containing peptide, CDCRGDCFC (SEQ ID NO: 57; see, Koivunen et al., supra, 1995) or control (insertless) phage were injected intravenously (iv) into the mice and allowed to circulate for 4 min. The mice then were snap frozen while under anesthesia, and various organs, including tumor, brain and kidney, were removed and the phage present in the organs was quantitated (see Pasqualini and Ruoslahti, supra, 1996).

In assay [2] the test system is brain. As to the kind of experiment: In vivo panning of phage peptide display libraries, brain as the selected organ (kidney control). More on the design: species or system mice. The note with it: phage recovered from brain; for (% PHAGE): % of the 73 clones sequenced; for # PHAGE DISPLAYING SAME A.A. SEQUENCE: second and third rounds of in vivo panning, 73 cloned phage sequenced. As to the method: Phage display libraries were constructed using the fuse 5 vector as described by Koivunen et al. (supra, 1995; see, also, Koivunen et al. Meth. Enzymol. 245:346-369 (1994b), which is incorporated herein by reference). Six libraries encoding peptides designated CX5C (SEQ ID NO: 36), CX6C (SEQ ID NO: 37), CX7C (SEQ ID NO: 38), CX9 (SEQ ID NO: 39), X2CX14CX2 (SEQ ID NO: 40) and X2CX18 (SEQ ID NO: 41) were prepared, where "C" indicates cysteine and "XN" indicates the given number of individually selected amino acids. These libraries can display cyclic peptides when at least two cysteine residues are present in the peptide.
Oligonucleotides were constructed such that "C" was encoded by the codon TGT and "XN" was encoded by NNK, where "N" is equal molar mixtures of A, C, G and T, and where "K" is equal molar mixtures of G and T. Thus, the peptide represented by CX5C (SEQ ID NO: 36) can be represented by an oligonucleotide having the sequence TGT(NNK)5TGT (SEQ ID NO: 42). Oligonucleotides were made double stranded by 3 cycles of PCR amplification, purified and ligated to the nucleic acid encoding the gene III protein in the fuse 5 vector such that, upon expression, the peptide is present as a fusion protein at the N-terminus of the gene III protein.
The vectors were transfected by electroporation into MC1061 cells. Bacteria were cultured for 24 hr in the presence of 20 µg/ml tetracycline, then phage were collected from the supernatant by precipitation twice using polyethylene glycol. Each library contained about 5 x 10^9 to 5 x 10^14 transducing units (TU; individual recombinant phage).
(§1) A mixture of phage libraries containing 1 x 10^14 TU was diluted in 200 µl DMEM and injected into the tail vein of anesthetized BALB\c mice (2 month old females; Jackson Laboratories; Bar Harbor ME); Avertin™ (0.015 ml/g) was used as anesthetic (see Pasqualini and Ruoslahti, supra, 1996). After 1-4 minutes, mice were snap frozen in liquid nitrogen. To recover the phage, carcasses were partially thawed at room temperature for 1 hr, organs were collected and weighed, then were ground in 1 ml DMEM-PI (DMEM containing protease inhibitors (PI); phenylmethylsulfonyl fluoride (PMSF; 1 mM), aprotinin (20 µg/ml), leupeptin (1 µg/ml)).
(§2) Organ samples were washed 3 times with ice cold DMEM-PI containing 1% bovine serum albumin (BSA), then directly incubated with 1 ml K91-kan bacteria for 1 hr. Ten ml NZY medium containing […] tetracycline (NZY/tet) was added to the bacterial culture, the mixture was incubated in a 37°C shaker for 1 hr, then 200 µl aliquots were plated in agar plates containing 40 µg/ml tetracycline (tet/agar).
(§3) Individual colonies containing phage recovered from brain or kidney were grown for 16 hr in 5 ml NZY/tet. The bacterial cultures obtained from the individual colonies were pooled and the phage were purified and re-injected into mice as described above for a second round of in vivo panning. A third round of panning also was performed. Phage DNA was purified from individual bacterial colonies obtained from the second and the third round of in vivo panning and the DNA sequences encoding the peptides expressed by selected phage were determined (see Koivunen et al., supra, 1994b).
Three rounds of in vivo panning in mice were performed. Kidney was used as a control organ. Mice were injected with two different mixtures of phage libraries. The first mixture contained libraries encoding CX9 (SEQ ID NO: 39), CX5C (SEQ ID NO: 36), CX6C (SEQ ID NO: 37) and CX7C (SEQ ID NO: 38) peptides (CX5-7/CX9 mixture; SEQ ID NOS: 36-39). The second mixture contained libraries encoding X2CX14CX2 (SEQ ID NO: 40) and X2CX18 (SEQ ID NO: 41) peptides (X2CX18/X2CX14CX2 mixture; SEQ ID NOS: 40 and 41).
The phage library mixtures were administered to mice via tail vein injection. Phage input was […] of the CX5-7/CX9 (SEQ ID NOS: 36-39) mixture or 1 x 10^14 TU of the X2CX18/X2CX14CX2 (SEQ ID NOS: 40 and 41) mixture. […]

The subject of assay [3] is brain. As to the kind of experiment: Specificity of brain homing of individually amplified phage (TU in brain vs kidney). The assay is classed as in vivo, mice. The note with it: individual phage, same input titer. As to the method:
To determine the specificity of brain homing of the individual motifs identified, phage displaying the predominant motifs were amplified individually, diluted to the same input titer and administered to mice. Following administration, brain and kidney were removed and the number of TU of phage in each organ was determined. […] Specifically, the ratio of selective homing (brain:kidney) was about 8 for CNSRLHLRC (SEQ ID NO: 1) and for CLSSRLDAC (SEQ ID NO: 3), 4 for CENWWGDVC (SEQ ID NO: 2) and 9 for […] (SEQ ID NO: 16).

Assay [4] relates to kidney. The assay is described as follows: In vivo panning of phage peptide display libraries, kidney as the selected organ (brain control). More on the design: species or system mice. Particulars: phage recovered from kidney; for (% PHAGE): % of the 48 clones sequenced; for # PHAGE DISPLAYING SAME A.A. SEQUENCE: 48 cloned phage sequenced. The protocol: as §1, §2, §3
The same methodology used to isolate phage expressing brain homing peptides was used to isolate phage expressing peptides that home to kidney. In these experiments, brain was used as the control organ. A mixture of the CX5C (SEQ ID NO: 36) and the CX6C (SEQ ID NO: 37) libraries was administered as described above. Homing of phage to the kidney was obtained and an approximately 3x to 7x enrichment of phage homing to kidney was observed following a second round of in vivo panning.
(§4) The amino acid sequences were determined for the inserts in 48 cloned phage that homed to kidney. The peptides expressed by these phage were represented by two predominant sequences, CLPVASC (SEQ ID NO: 21; 46% of the clones sequenced) and CGAREMC (SEQ ID NO: 22; 17% of the clones; see Table 2). In addition, the peptide CKGRSSAC (SEQ ID NO: 23) appeared three times and three other peptides were present twice each.

Assay [5] relates to kidney. The assay is described as follows: Selective kidney homing of individual phage (kidney vs brain). The format is in vivo, mice. The protocol:
as §4

The subject of assay [6] is Human 435 breast carcinoma cells. As to the kind of experiment: In vivo panning in mice bearing a human breast carcinoma tumor. Also on record: species or system nude mice. The note with it: phage recovered from human breast cancer after third round, 14 cloned phage; for # clones: CX3CX3CX3C library. As to the method: Human 435 breast carcinoma cells (Price et al., Cancer Res. 50:717-721 (1990)) were inoculated into the mammary fat pad of nude mice. When the tumors attained a diameter of about 1 cm, either a phage targeting experiment was performed, in which phage expressing a specific peptide were administered to the tumor bearing mouse, or in vivo panning was performed.
The breast tumor bearing mice were injected with 1 x 10^9 phage expressing a library of CX3CX3CX3C (SEQ ID NO: 47) peptides, where X3 indicates three groups of independently selected, random amino acids. The phage were allowed to circulate for 4 min, then the mice were anesthetized, snap frozen in liquid nitrogen while under anesthesia, and the tumor was removed. Phage were isolated from the tumor and subjected to two additional rounds of in vivo panning.
Following the third round of panning, phage were quantitated and the peptide sequences expressed by 14 different cloned phage were determined. The 14 cloned phage expressed 4 different peptides (Table 3).

Assay [7] deals with B16B15b mouse melanoma cells. The assay is described as follows: In vivo panning in mice bearing an implanted mouse melanoma tumor. Also on record: species or system nude mice. Particulars: phage recovered from B16B15b tumors; 89 cloned phage sequenced. As to the method:
Mice bearing a melanoma were produced by implantation of B16B15b mouse melanoma cells, which produce highly vascularized tumors. B16B15b mouse melanoma cells were injected subcutaneously into the mammary fat pad of nude mice (2 months old) and tumors were allowed to grow until the diameter was about 1 cm. In vivo panning was performed as disclosed above. Approximately 1 x 10^12 transducing units of phage expressing the CX5C (SEQ ID NO: 36), CX6C (SEQ ID NO: 37) or […] library were injected, iv, and allowed to circulate for 4 min. Mice then were snap frozen in liquid nitrogen while under anesthesia, tumor tissue and brain (control organ) were removed, and phage were isolated as described above. Three rounds of in vivo panning were performed.
The amino acid sequences were determined for the inserts in 89 cloned phage recovered from the B16B15b tumors. The peptides expressed by these phage were represented by two predominant sequences, CLSGSLSC (SEQ ID NO: 55; 52% of the clones sequenced) and WGTGLC (SEQ ID NO: 52; 25% of the clones; see Table 4).

In a further assay the test system is melanoma. As to the kind of experiment: Immunohistochemical staining (anti-M13) for phage localization in melanoma bearing mice. The assay is classed as in vivo. The note with it: 1 x 10^9 pfu phage iv, 4 min. The protocol: Localization of the phage expressing a tumor homing peptide in the mouse organs was examined by immunohistochemical staining of the tumor and various other tissues. 1 x 10^9 pfu of a control (insertless) phage or a phage expressing the tumor homing peptide, CLSGSLSC ([…]), were injected, iv, into tumor bearing mice and allowed to circulate for 4 min. The mouse then was perfused with DMEM and various organs, including the tumor were removed and fixed in Bouin's solution. Histologic sections were prepared and stained using anti-M13 (phage) antibodies (see Pasqualini and Ruoslahti, supra, 1996).

As for CDCRGDCFC, in assay [1] (1 x 10^9 phage iv, 4 min), the “phage detected in the breast tumor as compared to brain and kidney” value is reported as 2-3 times. For the same substance, in assay [1] (breast tumors), the “immunohistochemical staining for the phage in the tumor” value is “accumulation of the RGD phage in the blood vessels within the tumor”. Besides, the “RGD phage as compared to unselected control phage accumulated in the tumor” value is 80 fold in assay [1] and “twenty- to eighty-fold” in assay [1] (listed as RGD phage). Also, the “staining for the phage in brain or kidney (control organs)” value in assay [1] (mouse, in vivo) is “no staining”.

Take CENWWGDVC (displayed on phage): in the assay with brain [2], the “(% PHAGE)” value was 19% and 19.2%; the “# PHAGE DISPLAYING SAME A.A. SEQUENCE” value is on record as 14. Further, in the assay with brain [3], the “ratio of selective homing (brain:kidney)” value is reported as roughly 4.

Regarding CGAREMC (displayed on phage), in the assay on kidney [4], the “(% PHAGE)” value was 17% and 16.7%; the “# PHAGE DISPLAYING SAME A.A. SEQUENCE” value was determined as 8. Also, in the assay with kidney [5], the “ratio of selective kidney:brain homing” value amounted to 3.

Regarding “CGEACGGQCALPC [breast tumor homing peptide]”, in assay [6], the “% of total phage sequenced” value is given as 28.6% and the “# clones” value was 4.

In the case of “CGLMCQGACFDVC [peptide from phage recovered from human breast cancer]”, in assay [6], the “% of total phage sequenced” value turned out to be 7.1% and the “# clones” value is 1.

On to “CGRECPRLCQSSC [breast tumor homing peptide]”, for which the “% of total phage sequenced” value in assay [6] is 42.9%.

Turning to “CKGRSSAC (cysteine pairing not given here; also: displayed on phage)”, the “(% PHAGE)” value with kidney [4] worked out at 6.2%. Further, the “ratio of selective kidney:brain homing” value in the assay on kidney [5] is reported as 2.

CLPVASC (displayed on phage): in the assay on kidney [4], the “(% PHAGE)” value is 46% and 45.8%; the “# PHAGE DISPLAYING SAME A.A. SEQUENCE” value is on record as 22. The “ratio of selective kidney:brain homing” value with kidney [5] is recorded as 7.

As to “CLSGSLSC (not fully specified; cysteine pairing not given here; also: displayed on phage)”, in assay [7], the “# clones” value turned out to be 46 and the “% of total phage” value is listed as 52%. Besides, in the assay with melanoma, the “immunostaining in the liver sinusoids and in spleen” value was “immunostaining was detected”; the “immunostaining in the melanoma” value is given as “Strong immunostaining”; the “staining in skin or in kidney samples” value was “Essentially no staining”.

In the case of “CNGRCVSGCAGRC [breast tumor homing peptide]”, in assay [6], the “% of total phage sequenced” value was determined as 21.4% and the “# clones” value is listed as 3.

Turning to CNSRLHLRC (displayed on phage), in the assay with brain [2], the “(% PHAGE)” value turned out to be 21.9% and the “# PHAGE DISPLAYING SAME A.A. SEQUENCE” value stood at 16. Moreover, in the assay on brain [3], the “ratio of selective homing (brain:kidney)” value was “about 8”.

On to “CSVANSC (cysteine pairing not given here; also: displayed on phage) [peptide from phage recovered from mouse B16B15b melanoma]”, for which, in assay [7], the “# clones” value is 3 and the “% of total phage” value is 3%.

As to “WGTGLC (also: displayed on phage) [peptide from phage recovered from mouse B16B15b melanoma]”, in assay [7], the “# clones” value was found to be 22 and the “% of total phage” value turned out to be 25%.

With “WRCVLREGPAGGCAWFNRHRL (displayed on phage)”, in the assay with brain [2], the “(% PHAGE)” value is given as 13.7% and the “# PHAGE DISPLAYING SAME A.A. SEQUENCE” value is given as 10. In addition, the “ratio of selective homing (brain:kidney)” value in the assay on brain [3] is on record as roughly 9.
